Blank lines part the entries; values can stand above or below the molecule they belong to.
Experiment: photoluminescence quantum yield (fraction); solvent given as SMILES
[1] = in O=P(c1ccccc1)(c1ccccc1)c1ccccc1Oc1ccccc1P(=O)(c1ccccc1)c1ccccc1

Structure (SMILES): CCN(CC)c1ccc2cc(/C=C/C(=C(C#N)C#N)c3ccc4c(c3)c3ccccc3n4CC)c(=O)oc2c1
photoluminescence quantum yield (in CC(C)=O): 0.174
photoluminescence quantum yield (in CCOC(C)=O): 0.125
photoluminescence quantum yield (in CN(C)C=O): 0.194
photoluminescence quantum yield (in CS(C)=O): 0.185
photoluminescence quantum yield (in Cc1ccccc1): 0.041
photoluminescence quantum yield (in ClCCl): 0.146

Structure (SMILES): N#Cc1nc2cnc(N)nc2n1Cc1ccccc1
photoluminescence quantum yield (in C1COCCO1): 0.34
photoluminescence quantum yield (in CC#N): 0.31
photoluminescence quantum yield (in CO): 0.64
photoluminescence quantum yield (in ClCCl): 0.2
photoluminescence quantum yield (in O): 0.88

Structure (SMILES): F[B-]1(F)n2cccc2C(c2c3ccccc3c(-c3ccccc3)c3ccccc23)=C2C=CC=[N+]21
photoluminescence quantum yield (in CC#N): 0.001
photoluminescence quantum yield (in CCO): 0.002
photoluminescence quantum yield (in CN(C)C=O): 0.001
photoluminescence quantum yield (in Cc1ccccc1): 0.007
photoluminescence quantum yield (in ClCCl): 0.002

Structure (SMILES): Fc1ccc(C#Cc2cc(C#Cc3ccc(F)cc3)c(C#Cc3ccc(F)cc3)c(C#Cc3ccc(F)cc3)c2C#Cc2ccc(F)cc2)cc1
photoluminescence quantum yield (in ClCCl): 0.43

Structure (SMILES): COc1cccc2oc(-c3cc4c(OC)cccc4oc3=O)cc12
photoluminescence quantum yield (in CS(C)=O): 0.68

Structure (SMILES): N[C@@H](Cn1nnc2cc(-c3ccc(N4CCOCC4)cc3)ccc21)C(=O)O
photoluminescence quantum yield (in CO): 0.004

Structure (SMILES): CCCCCCN(CCCCCC)c1ccc(C#Cc2ccc(N(CCCCCC)CCCCCC)cc2)cc1
photoluminescence quantum yield (in CO): 0.0001

Structure (SMILES): CCC1(CC)c2cc(B(c3c(C)cc(C)cc3C)c3c(C)cc(C)cc3C)ccc2-c2c1c1c(c3c2C(CC)(CC)c2cc(N(c4ccccc4)c4ccccc4)ccc2-3)C(CC)(CC)c2cc(N(c3ccccc3)c3ccccc3)ccc2-1
photoluminescence quantum yield (in C1CCOC1): 0.21

Structure (SMILES): COCCOCCOCCOc1ccc(OCCOCCOCCOC)c(C=O)c1
photoluminescence quantum yield (in CC(C)(C)O): 0.13
photoluminescence quantum yield (in CC(C)CO): 0.2
photoluminescence quantum yield (in CC(C)O): 0.2
photoluminescence quantum yield (in CCCCO): 0.22
photoluminescence quantum yield (in CCCO): 0.23
photoluminescence quantum yield (in CCO): 0.2
photoluminescence quantum yield (in CN(C)C=O): 0.02
photoluminescence quantum yield (in CNC=O): 0.14
photoluminescence quantum yield (in CO): 0.25
photoluminescence quantum yield (in NC=O): 0.43
photoluminescence quantum yield (in O): 0.11

Structure (SMILES): CC1=CC(c2ccc3cc(N(C)C)ccc3c2)=[O+][B-](F)(F)O1
photoluminescence quantum yield (in C1CCOC1): 0.91
photoluminescence quantum yield (in CC#N): 0.14
photoluminescence quantum yield (in CC(C)=O): 0.53
photoluminescence quantum yield (in CS(C)=O): 0.22
photoluminescence quantum yield (in Cc1ccccc1): 0.93
photoluminescence quantum yield (in ClC(Cl)Cl): 0.97
photoluminescence quantum yield (in ClCCl): 0.99

Structure (SMILES): CC(C)(C)c1ccc(-c2c(-c3cccc(N(c4ccccc4)c4ccccc4)c3)c(C#N)c(-c3cccc(N(c4ccccc4)c4ccccc4)c3)c(-c3ccc(C(C)(C)C)cc3)c2-c2ccc(C(C)(C)C)cc2)cc1
photoluminescence quantum yield (in C1CCOC1): 0.072

Structure (SMILES): CCC1=C(C)C2=C(C)c3cc(I)c(I)n3[B-](F)(F)[N+]2=C1C
photoluminescence quantum yield (in C1CCCCC1): 0.2
photoluminescence quantum yield (in CC(C)=O): 0.13
photoluminescence quantum yield (in CCO): 0.16
photoluminescence quantum yield (in CCOC(C)=O): 0.15
photoluminescence quantum yield (in CO): 0.13
photoluminescence quantum yield (in OCC(F)(F)F): 0.11

Structure (SMILES): CCCCCCCCCCOc1cc(OCCCCCCCCCC)cc(C2=C3C(/C=C/c4ccc(OC)cc4)=CC(/C=C/c4ccc(OC)cc4)=[N+]3[B-](F)(F)n3c(/C=C/c4ccc(OC)cc4)cc(C=Cc4ccc(OC)cc4)c32)c1
photoluminescence quantum yield (in ClC(Cl)Cl): 0.34

Structure (SMILES): CCn1c2ccccc2c2cc(/C=C/c3cccc(/C=C/c4ccc5c(c4)c4ccccc4n5CC)[n+]3CCCS(=O)(=O)[O-])ccc21
photoluminescence quantum yield (in C1CCOC1): 0.1
photoluminescence quantum yield (in CC#N): 0.03
photoluminescence quantum yield (in CC(C)=O): 0.03
photoluminescence quantum yield (in Cc1ccccc1): 0.08

Structure (SMILES): COC(=O)c1nc2cnc(N(C)C)nc2n1Cc1ccccc1
photoluminescence quantum yield (in C1COCCO1): 0.83
photoluminescence quantum yield (in CC#N): 0.6
photoluminescence quantum yield (in CO): 0.17
photoluminescence quantum yield (in ClCCl): 0.81

Structure (SMILES): c1ccc(-c2nc(-c3ccccc3)nc(-c3ccc(-n4c5ccccc5c5c6c(ccc54)C4(c5ccccc5-c5ccccc54)c4ccccc4-6)cc3)n2)cc1
photoluminescence quantum yield [1]: 0.45

Structure (SMILES): CCN(CC)c1ccc(C(=C(c2ccccc2)c2ccc(B(c3c(C)cc(C)cc3C)c3c(C)cc(C)cc3C)cc2)c2ccc(N(CC)CC)cc2)cc1
photoluminescence quantum yield (in C1CCOC1): 0.19

Structure (SMILES): CCN(CC)c1ccc2cc(C#N)/c(=N\C(=O)c3ccco3)oc2c1
photoluminescence quantum yield (in CCO): 0.033
photoluminescence quantum yield (in ClCCl): 0.9

Structure (SMILES): Cc1ccc(N2C(c3ccccc3N(C)C)=NC(c3ccccc3)C2c2ccccc2)cc1 (configuration not stated)
photoluminescence quantum yield (in Cc1ccccc1): 0.275

Structure (SMILES): c1ccc(-c2ccc(-c3ccccc3)cc2)cc1
photoluminescence quantum yield (in C1COCCO1): 0.55

Structure (SMILES): CCCCN1C(=O)c2cc(Oc3ccc(C(C)(C)C)cc3)c3c4c(Oc5ccc(C(C)(C)C)cc5)cc5c6c(cc(Oc7ccc(C(C)(C)C)cc7)c(c7c(Oc8ccc(C(C)(C)C)cc8)cc(c2c37)C1=O)c64)C(=O)N(CCCC)C5=O
photoluminescence quantum yield (in C1CCOC1): 0.82
photoluminescence quantum yield (in Cc1ccccc1): 0.811
photoluminescence quantum yield (in ClC(Cl)Cl): 0.83
photoluminescence quantum yield (in ClCCl): 0.802

Structure (SMILES): c1ccc2c(c1)Cc1ccccc1N2c1c2ccccc2cc2ccccc12
photoluminescence quantum yield (in Cc1ccccc1): 0.06

Structure (SMILES): CCCN1C(=O)c2c3c(c4c(c2C1=O)CCc1cc(-c2ccc(N(C)C)cc2)c(OC)cc1-4)-c1cc(OC)c(-c2ccc(N(C)C)cc2)cc1CC3
photoluminescence quantum yield (in C1CCCCC1): 0.752
photoluminescence quantum yield (in C1CCOC1): 0.069
photoluminescence quantum yield (in CCOC(C)=O): 0.065
photoluminescence quantum yield (in Cc1ccccc1): 0.726
photoluminescence quantum yield (in ClCCl): 0.023

Structure (SMILES): CC1(C)c2ccccc2N(c2ccc3c(c2)c2cc(N4c5ccccc5C(C)(C)c5ccccc54)cc4c5ccccc5n3c42)c2ccccc21
photoluminescence quantum yield [1]: 0.96

Structure (SMILES): CC(C)(C)c1ccc(C2=C(c3ccc(-n4c5ccccc5c5ccccc54)cc3)S(=O)(=O)c3c2sc(-c2ccc(-n4c5ccccc5c5ccccc54)cc2)c3-c2ccc(C(C)(C)C)cc2)cc1
photoluminescence quantum yield (in C1CCOC1): 0.056

Structure (SMILES): CCCCCCCCc1ccc(-n2c3c(c4c2c2c(n4-c4ccc(CCCCCCCC)cc4)-c4ccccc4NB2c2ccccc2)B(c2ccccc2)Nc2ccccc2-3)cc1
photoluminescence quantum yield (in Cc1ccccc1): 0.7

Structure (SMILES): c1ccc(-c2nc3ccccc3nc2-c2ccc(-n3c4ccccc4c4ccccc43)cc2)cc1
photoluminescence quantum yield (in Cc1ccccc1): 0.32

Structure (SMILES): CCOC(=O)c1c2c3c(ccc(C)c3c3cc4c(cc13)[Si](C)(C)O[Si]4(C)C)N(C)C2=O
photoluminescence quantum yield (in CC#N): 0.4

Structure (SMILES): N#Cc1c(-n2c3ccccc3c3ccccc32)c(-n2c3ccccc3c3ccccc32)cc(-n2c3ccccc3c3ccccc32)c1-n1c2ccccc2c2ccccc21
photoluminescence quantum yield (in Cc1ccccc1): 0.49

Structure (SMILES): Cc1ccc2c(c1)c1cc(C)ccc1n2-c1c(-n2c3ccccc3c3ccccc32)cc(-c2nc(-c3ccccc3)nc(-c3ccccc3)n2)cc1-n1c2ccccc2c2ccccc21
photoluminescence quantum yield [1]: 0.98

Structure (SMILES): CC(C)(C)c1ccc2c(c1)c1cc(C(C)(C)C)ccc1n2-c1ccc(N(c2ccc(-c3ccc(-c4ccc(-c5ccc(-c6ccc(N(c7ccc(-n8c9ccc(C(C)(C)C)cc9c9cc(C(C)(C)C)ccc98)cc7)c7ccc(-n8c9ccc(C(C)(C)C)cc9c9cc(C(C)(C)C)ccc98)cc7)cc6)cc5)c5nsnc45)cc3)cc2)c2ccc(-n3c4ccc(C(C)(C)C)cc4c4cc(C(C)(C)C)ccc43)cc2)cc1
photoluminescence quantum yield (in ClCCl): 0.03

Structure (SMILES): Cc1ccc(-c2nc(-c3ccc(-c4nc(-c5ccc(C)cc5)c(-c5ccc(C)cc5)[nH]4)cc3)[nH]c2-c2ccc(C)cc2)cc1
photoluminescence quantum yield (in CS(C)=O): 0.96

Structure (SMILES): CC(=O)[B-]1(C(C)=O)OC(c2ccccc2)=CC(c2ccc3ccccc3c2)=[O+]1
photoluminescence quantum yield (in CC#N): 0.52
photoluminescence quantum yield (in ClC(Cl)(Cl)Cl): 0.58

Structure (SMILES): O=Cc1ccc2nc(C#Cc3ccc(N(c4ccccc4)c4ccccc4)cc3)sc2c1
photoluminescence quantum yield (in Cc1ccccc1): 1

Structure (SMILES): Cc1cc2nc3c(=O)[nH]c(=O)nc-3n(C)c2cc1C
photoluminescence quantum yield (in CC#N): 0.16

The next lines start with the values.

photoluminescence quantum yield (in ClCCl): 0.00044
Structure (SMILES): COc1cc2c(cc1OC)C1=C[C@H](c3ccc(Cl)cc3)C3(C(C#N)=C(C#N)N1CC2)c1ccccc1-c1ccccc13

photoluminescence quantum yield (in C1COCCO1): 0.73
Structure (SMILES): c1ccc(-c2nc(-c3ccc(-c4ccc(-c5ccc(-c6nc(-c7ccccc7)c(-c7ccccc7)o6)cc5)cc4)cc3)oc2-c2ccccc2)cc1

photoluminescence quantum yield (in ClCCl): 0.0207
Structure (SMILES): COC(=O)c1[nH]c(-c2ccccc2)c2nnc3ccc(OC)cc3c12

photoluminescence quantum yield (in CCO): 0.46
Structure (SMILES): c1ccc(-n2c3ccccc3c3ccccc32)cc1

photoluminescence quantum yield (in ClC(Cl)Cl): 0.79
Structure (SMILES): N#Cc1nc(N(Cc2ccccc2F)Cc2ccccc2F)c(C#N)nc1N(Cc1ccccc1F)Cc1ccccc1F

photoluminescence quantum yield (in ClCCl): 0.77
Structure (SMILES): C[Si]1(C)c2cc(C#Cc3ccccc3)ccc2C=Cc2ccc(C#Cc3ccccc3)cc21

photoluminescence quantum yield (in ClC(Cl)Cl): 0
Structure (SMILES): CC1=c2c3c4cccc5cccc(c=3c(C)[n+]2[B-](F)(F)n2c(C)c3c(c21)-c1cccc2cccc-3c12)c54

photoluminescence quantum yield (in C1CCCCC1): 0.65
photoluminescence quantum yield (in CCOC(C)=O): 0.11
Structure (SMILES): CC1=[N+]2C(=C(c3ccc4c(c3)Cc3ccccc3-4)c3ccc(C)n3[B-]2(F)F)C=C1c1cc2n(c1)[B-](F)(F)[N+]1=CC=CC1=C2c1c(C)cc(C)cc1C

photoluminescence quantum yield (in CN(C)C=O): 0.197
Structure (SMILES): CCN(CC)c1ccc(-c2nc(Oc3ccc(-c4nc5ccccc5[nH]4)cc3)nc(Oc3ccc(-c4nc5ccccc5[nH]4)cc3)n2)cc1

photoluminescence quantum yield (in ClCCl): 0.42
Structure (SMILES): Clc1ccc(-c2cccc3ncc(-c4ccccc4)n23)cc1

photoluminescence quantum yield (in ClC(Cl)Cl): 0.09
Structure (SMILES): Cc1ccc(/C2=c3\cc/c(o3)=C(\c3ccc(C)cc3)c3ccc([nH]3)-c3ccc4n3[B-](F)(F)[N+]3=C(C=CC3=C4c3cccs3)c3ccc2[nH]3)cc1

photoluminescence quantum yield (in ClC(Cl)Cl): 0.91
Structure (SMILES): COc1ccccc1-c1cc2c(o1)=CC1=Cc3cc4oc(-c5ccccc5OC)cc4n3[B-](F)(F)[N+]=21

photoluminescence quantum yield (in ClCCl): 0
Structure (SMILES): Cc1ccc(/C=C/c2nc(-c3ccc([N+](=O)[O-])cc3)[nH]c2/C=C/c2ccc(C)cc2)cc1

photoluminescence quantum yield (in ClCCl): 0.9
Structure (SMILES): F[B-]1(F)n2c(cc3c4ccccc4c4ccccc4c32)-c2ccc3ccccc3[n+]21

photoluminescence quantum yield (in ClCCl): 0.64
Structure (SMILES): CC1=C2C=CC(c3ccccc3)=[N+]2[B-](F)(F)n2c1ccc2-c1ccccc1

photoluminescence quantum yield (in CCO): 0.55
Structure (SMILES): COC(=O)C(NC(=O)CCNc1cccc2ccccc12)c1ccccc1 (configuration not stated)

photoluminescence quantum yield (in ClCCl): 0.79
Structure (SMILES): c1cnc(-c2c3ccccc3c(-c3ncccn3)c3ccccc23)nc1

photoluminescence quantum yield (in CC#N): 0.75
photoluminescence quantum yield (in CS(C)=O): 0.94
Structure (SMILES): c1ccc(-c2nc(-c3ccc(-c4nc(-c5ccccc5)c(-c5ccccc5)[nH]4)cc3)[nH]c2-c2ccccc2)cc1

photoluminescence quantum yield (in CCO): 0.0588
photoluminescence quantum yield (in ClCCl): 0.0292
photoluminescence quantum yield (in O): 0.07
Structure (SMILES): Oc1ccc(-c2ccco2)cc1-c1nc2ccccc2s1
